# Measured values: PubChem BioAssay (NCI)
#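 Grown in 96-well plates, cells were treated for 48 hours with each compound at five concentrations. Insufficient inhibition: endpoint recorded as highest concentration tested. GI50 = concentration required for 50% inhibition of growth. The concentration for full growth arrest is given as TGI.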
# How the values were obtained:
# Assay in all cases: DTP human tumour cell line panel, 48 h
# [1] = tested on: A549 NSCLC
# [2] = tested on: CCRF-CEM leukemia
# [3] = tested on: COLO 205 colon
# [4] = tested on: HT29 colon
# [5] = tested on: NCI-H23 lung
# [6] = tested on: SNB-75 CNS
# [7] = tested on: IGROV1 ovarian
# [8] = tested on: K-562 leukemia
# [9] = tested on: UACC-62 melanoma
# [10] = tested on: MALME-3M melanoma
Structure (SMILES),GI50 [1] [µM],TGI [1] [µM],GI50 [2] [µM],TGI [2] [µM],GI50 [3] [µM],TGI [3] [µM],GI50 [4] [µM],TGI [4] [µM],GI50 [5] [µM],TGI [5] [µM],GI50 [6] [µM],TGI [6] [µM],GI50 [7] [µM],TGI [7] [µM],GI50 [8] [µM],TGI [8] [µM],GI50 [9] [µM],TGI [9] [µM],TGI [10] [µM],GI50 [10] [µM]
CC(=O)C1CCC2C3CC=C4CC(SC(=N)N)CCC4(C)C3CCC12C (configuration not stated),1.82,3.61,1.79,4.26,1.6,2.94,0.809,2.14,2.02,5.34,1.58,4.15,–,–,–,–,–,–,–,–
COc1ccc2c(c1)N(CCO)C1=C(C(=O)OC1)C2c1ccccc1 (configuration not stated),2.12,> 50,1.91,> 50,1.8,4.85,1.77,5.73,1.94,> 50,1.01,> 50,2.41,> 50,1.23,> 50,1.72,> 50,–,–
CCCCCCCCCOC(=S)NCCCCC,–,81.7,–,63.4,–,–,–,63.4,–,68.3,–,> 100,–,> 100,–,84.1,–,89,63.2,–
COC(=O)C1=C(O)[C@H](C(=O)OC)[C@]2(O)[C@@H](C(=O)OC)[C@H]1C[C@@H](c1ccc(OC(=O)/C=C/c3ccco3)cc1)[C@@H]2C(=O)OC,30.5,> 100,–,–,15,87.9,11.5,> 100,–,–,–,–,–,–,19.7,> 100,4.09,18.9,–,–
C/C=C(/C)C(=O)OC1C=C(CO)C(=O)C(OC(=O)C(C)(O)C(C)Cl)C1C(C)C (configuration not stated),2.81,9.36,0.327,2.05,1.3,2.85,1.47,3.56,1.84,4.42,–,–,–,–,0.396,12.5,0.744,2.05,1.85,0.474
CCOC(=O)C1SC(=Nc2ccc(Cl)cc2C)N=C1C (configuration not stated),–,86.2,–,–,–,31,–,30.3,–,34.8,–,69.9,–,88,–,51.3,–,27.9,39.2,–
COc1ccc(CNc2cnc3cc(N)cc(N)c3n2)cc1,23,54.1,24.1,> 100,33.6,> 100,42,> 100,15.1,29.1,42.8,> 100,11.2,29,10.7,29.3,18.1,32.4,–,–
COC(=O)C(=O)C(C(=O)C(=O)Nc1ccc(C)cc1)c1nc2ccc(C(=O)c3ccccc3)cc2[nH]c1=O (configuration not stated),–,> 100,–,> 100,–,–,–,> 100,–,> 100,–,> 100,–,> 100,–,> 100,–,> 100,> 100,–
CC1=NN(C(=O)c2ccc(Cl)cc2)C(=O)/C1=C/c1ccco1,–,> 100,–,> 100,–,> 100,–,> 100,–,> 100,–,–,–,> 100,–,> 100,–,> 100,> 100,–
Cn1nc(-c2ccccc2)c(C(=O)/C=C/c2ccc(F)cc2)c(N2CCOCC2)c1=O,–,54.3,–,49.2,–,34.6,–,30.2,–,–,–,–,–,39.3,–,53.2,–,43,–,–
CCc1nc2cc(/C=C/C(=O)NO)ccc2c(=O)n1CCc1ccc(F)cc1,1.72,4.58,1.39,> 100,1.26,3.65,1.49,9.06,1.62,3.7,–,–,–,–,2.37,> 100,–,–,12.4,1.83
CCOC(=O)c1c2cccccc2n2c(=O)cc(C)nc12,–,> 100,–,> 100,–,> 100,–,> 100,–,> 100,–,–,–,> 100,–,> 100,–,> 100,–,–
CO[C@@H]1[C@H]2[C@@H](C)c3ccoc3C[C@@H]2[C@@]2(C)CC[C@H](OC(=O)c3ccccc3)[C@](C)(C(=O)O)[C@]2(O)[C@@H]1OC(=O)c1ccccc1,10.6,> 50,22.7,> 50,7.34,15.2,13.5,> 50,10.6,28.5,> 50,> 50,> 50,> 50,15.4,> 50,7.12,13.6,–,–
